Assay results taken from patent publication US20250270198A1, “PYRIDONE COMPOUNDS AS TRPA1 INHIBITORS” (D. E. Shaw Research, LLC, priority 2022, published 2025).

Molecular target: human TRPA1 channel (Homo sapiens (Human), UniProt O75762)
Assay: TRPA1 inhibitor activity, automated patch clamp (SyncroPatch)
Assay type: cell-based
Conditions: CHO cells inducibly expressing human TRPA1, currents elicited by carvacrol (300 μM), holding potential −60 mV
Method: This assay was used to evaluate the disclosed compounds' inhibition activities against the human TRPA1 channel.
CHO cells inducibly expressing human TRPA1 were grown in DMEM containing 10% heat-inactivated FBS, 1 mM Sodium Pyruvate, 2 mM L-Glutamine, Zeocin (100 μg/ml) and Blasticidin (10 μg/ml). Expression was induced by addition of Doxycycline (1 μg/ml) 24 hours before experiments. Cells used for electrophysiology were plated in plastic culture flasks and grown at 37° C. in a 5% CO2-humidified tissue culture incubator per ChanPharm SOP. Stocks were maintained in cryogenic storage.
The cells were bathed in an extracellular solution containing 80 mM NaCl, 60 mM NMDG, 4 mM KCl, 2 mM CaCl2), 6 mM MgCl2, 5 mM Glucose. 10 mM HEPES, 3 mM HEDTA; pH adjusted to 7.4 with NaOH; 305-310 mOsm. All compounds were dissolved in DMSO at 30 mM. The internal solution contained 10 mM CsCl, 110 mM CsF, 10 mM NaCl, 10 mM EGTA, 10 mM HEPES, 4 mM MgATP, 0.25 mM NaGTP, 4 mM BAPTA; pH adjusted to 7.2 with CsOH; 285-290 mOsm. Compound stock solutions were freshly diluted with external solution to concentrations of 3 nM, 10 nM 30 nM, 100 nM, 300 nM, 1 μM, 3 μM, 10 μM, and 30 μM. The highest content of DMSO (0.1%) was present at 30 μM.
All experiments were performed at room temperature. Each cell acted as its own control. In preparation for a current recording session, intracellular solution (see above) was loaded into the intracellular compartments of the automated patch clamp platform SyncroPatch (Nanion) chip and the cell suspension was pipetted into the extracellular compartments. After establishment of a whole-cell configuration, membrane current recordings and compound application were enabled by means of the SyncroPatch. TRPA1 currents were elicited by application of carvacrol (300 μM) at a constant holding potential of −60 mV (see Table A below).
To determine IC50 values, AUC and peak values, obtained in the presence of a given compound concentration, were normalized to control values in absence of compound. Using DataControl384 (Nanion's proprietary software), IC50 values were derived by fitting the normalized data to the Hill equation.

Chain of human TRPA1 channel (O75762 whole entry): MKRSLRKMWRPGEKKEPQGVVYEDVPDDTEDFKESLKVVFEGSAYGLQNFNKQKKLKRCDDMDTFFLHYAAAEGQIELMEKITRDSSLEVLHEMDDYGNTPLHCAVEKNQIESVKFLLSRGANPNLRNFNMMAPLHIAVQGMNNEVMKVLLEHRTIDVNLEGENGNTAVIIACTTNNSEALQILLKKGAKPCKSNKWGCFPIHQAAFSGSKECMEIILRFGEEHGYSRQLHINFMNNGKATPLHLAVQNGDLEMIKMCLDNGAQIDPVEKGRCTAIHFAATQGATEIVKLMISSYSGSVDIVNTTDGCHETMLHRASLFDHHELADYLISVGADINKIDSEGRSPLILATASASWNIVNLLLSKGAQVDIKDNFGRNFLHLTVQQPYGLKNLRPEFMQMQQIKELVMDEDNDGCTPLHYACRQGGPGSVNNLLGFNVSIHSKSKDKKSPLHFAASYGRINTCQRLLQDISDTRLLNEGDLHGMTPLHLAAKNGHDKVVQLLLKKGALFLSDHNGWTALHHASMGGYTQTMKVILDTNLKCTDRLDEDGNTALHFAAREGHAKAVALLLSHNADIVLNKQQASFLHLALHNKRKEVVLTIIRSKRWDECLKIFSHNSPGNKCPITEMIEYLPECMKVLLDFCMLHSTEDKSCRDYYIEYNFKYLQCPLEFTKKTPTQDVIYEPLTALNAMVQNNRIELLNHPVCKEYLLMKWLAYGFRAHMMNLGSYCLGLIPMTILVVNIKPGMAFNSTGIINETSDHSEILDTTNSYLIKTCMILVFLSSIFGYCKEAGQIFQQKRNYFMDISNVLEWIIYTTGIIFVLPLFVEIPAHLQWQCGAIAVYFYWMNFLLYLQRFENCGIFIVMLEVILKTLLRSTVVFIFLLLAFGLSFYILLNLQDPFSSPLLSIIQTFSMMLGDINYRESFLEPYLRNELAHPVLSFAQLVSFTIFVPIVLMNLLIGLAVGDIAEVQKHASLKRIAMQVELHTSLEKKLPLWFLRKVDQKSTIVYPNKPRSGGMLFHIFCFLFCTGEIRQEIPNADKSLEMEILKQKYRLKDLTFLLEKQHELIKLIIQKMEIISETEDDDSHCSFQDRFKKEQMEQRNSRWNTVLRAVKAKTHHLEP

Cc1c(-c2cn[nH]c2)ccn(Cc2nc(CCc3ccc(Cl)cc3)no2)c1=O [Compound 15, 1-((3-(4-chlorophenethyl)-1,2,4-oxadiazol-5-yl)methyl)-3-methyl-4-(1H-pyrazol-4-yl)pyridin-2(1H)-one] gave an IC50 (Table 4) of under 3 µM.
In the case of Cc1cccn(Cc2nc(CCc3ccc(Cl)cc3)no2)c1=O [Compound 1, 1-((3-(4-chlorophenethyl)-1,2,4-oxadiazol-5-yl)methyl)-3-methylpyridin-2(1H)-one], the IC50 (Table 4) is reported as under 10 µM.
In the case of Cc1cc(Cl)cn(Cc2nc(CCc3ccc(Cl)cc3)no2)c1=O [Compound 5, 5-chloro-1-((3-(4-chlorophenethyl)-1,2,4-oxadiazol-5-yl)methyl)-3-methylpyridin-2(1H)-one], the IC50 (Table 4) is reported as under 3 µM.
Cc1ncn(Cc2nc(C[C@H](O)c3ccc(Cl)cc3)no2)c(=O)c1C [Compound 68, (S)-3-((3-(2-(4-chlorophenyl)-2-hydroxyethyl)-1,2,4-oxadiazol-5-yl)methyl)-5,6-dimethylpyrimidin-4(3H)-one] gave an IC50 (Table 5) of under 0.3 µM.
Compound Cc1nccn(Cc2nc(CCc3ccc(Cl)cc3)no2)c1=O [Compound 25, 1-((3-(4-chlorophenethyl)-1,2,4-oxadiazol-5-yl)methyl)-3-methylpyrazin-2(1H)-one] has an IC50 (Table 4) of under 3 µM.
With Cc1cn(Cc2nc(C[C@H](O)c3ccc(Cl)cc3)no2)c(=O)c(C)n1 [Compound 32, (S)-1-((3-(2-(4-chlorophenyl)-2-hydroxyethyl)-1,2,4-oxadiazol-5-yl)methyl)-3,5-dimethylpyrazin-2(1H)-one] the IC50 (Table 4) was under 1 µM.
In the case of Cc1cc(C#N)cn(Cc2nc(CCc3ccc(Cl)cc3)no2)c1=O [Compound 2, 1-((3-(4-chlorophenethyl)-1,2,4-oxadiazol-5-yl)methyl)-5-methyl-6-oxo-1,6-dihydropyridine-3-carbonitrile], the IC50 (Table 4) is reported as under 1 µM.
With C=Cc1ccn(Cc2nc(CCc3ccc(Cl)cc3)no2)c(=O)c1C [Compound 13, 1-((3-(4-chlorophenethyl)-1,2,4-oxadiazol-5-yl)methyl)-3-methyl-4-vinylpyridin-2(1H)-one] the IC50 (Table 4) was under 3 µM.
For O=c1c(Cl)c(Cl)ncn1Cc1nc(C[C@H](O)c2ccc(Cl)cc2)no1 [Compound 64, (S)-5,6-dichloro-3-((3-(2-(4-chlorophenyl)-2-hydroxyethyl)-1,2,4-oxadiazol-5-yl)methyl)pyrimidin-4(3H)-one], the IC50 (Table 5) was under 0.1 µM.
NC(=O)c1ncn(Cc2nc(C[C@H](O)c3ccc(Cl)cc3)no2)c(=O)c1Cl [Compound 62, (S)-5-chloro-1-((3-(2-(4-chlorophenyl)-2-hydroxyethyl)-1,2,4-oxadiazol-5-yl)methyl)-6-oxo-1,6-dihydropyrimidine-4-carboxamide] showed an IC50 (Table 5) of under 1 µM.
Cc1nc(Cl)cn(Cc2nc(CCc3ccc(Cl)cc3)no2)c1=O [Compound 24, 5-chloro-1-((3-(4-chlorophenethyl)-1,2,4-oxadiazol-5-yl)methyl)-3-methylpyrazin-2(1H)-one] showed an IC50 (Table 4) of under 1 µM.
In the case of Cc1nc(C)c(=O)n(Cc2nc(CCc3ccc(Cl)cc3)no2)c1C [Compound 23, 1-((3-(4-chlorophenethyl)-1,2,4-oxadiazol-5-yl)methyl)-3,5,6-trimethylpyrazin-2(1H)-one], the IC50 (Table 4) is reported as under 1 µM.
Work on Cc1cc(CC(N)=O)cn(Cc2nc(CCc3ccc(Cl)cc3)no2)c1=O [Compound 20, 2-(1-((3-(4-chlorophenethyl)-1,2,4-oxadiazol-5-yl)methyl)-5-methyl-6-oxo-1,6-dihydropyridin-3-yl)acetamide] yielded an IC50 (Table 4) of under 10 µM.
Cc1ncc(Cl)c(=O)n1Cc1nc(C[C@H](O)c2ccc(Cl)cc2)no1 [Compound 69, (S)-5-chloro-3-((3-(2-(4-chlorophenyl)-2-hydroxyethyl)-1,2,4-oxadiazol-5-yl)methyl)-2-methylpyrimidin-4(3H)-one] was tested, and the IC50 (Table 5) was under 1 µM.
N#Cc1cc(Br)c(=O)n(Cc2nc(CCc3ccc(Cl)cc3)no2)c1 [Compound 3, 5-bromo-1-((3-(4-chlorophenethyl)-1,2,4-oxadiazol-5-yl)methyl)-6-oxo-1,6-dihydropyridine-3-carbonitrile] gave an IC50 (Table 4) of under 1 µM.
Compound COC(=O)c1cc(C)c(=O)n(Cc2nc(CCc3ccc(Cl)cc3)no2)c1 [Compound 10, methyl 1-((3-(4-chlorophenethyl)-1,2,4-oxadiazol-5-yl)methyl)-5-methyl-6-oxo-1,6-dihydropyridine-3-carboxylate] has an IC50 (Table 4) of under 3 µM.
For Nc1c(Cl)c(F)n(Cc2nc(C[C@H](O)c3ccc(Cl)cc3)no2)c(=O)c1Cl [Compound 28, (S)-4-amino-3,5-dichloro-1-((3-(2-(4-chlorophenyl)-2-hydroxyethyl)-1,2,4-oxadiazol-5-yl)methyl)-6-fluoropyridin-2(1H)-one], the IC50 (Table 4) was under 1 µM.
In the case of Cc1c(N)ncn(Cc2nc(C[C@H](O)c3ccc(Cl)cc3)no2)c1=O [Compound 33, (S)-6-amino-3-((3-(2-(4-chlorophenyl)-2-hydroxyethyl)-1,2,4-oxadiazol-5-yl)methyl)-5-methylpyrimidin-4(3H)-one], the IC50 (Table 4) is reported as under 1 µM.
Work on O=c1c(Cl)nc(Br)cn1Cc1nc(C[C@H](O)c2ccc(Cl)cc2)no1 [Compound 21, (S)-5-bromo-3-chloro-1-((3-(2-(4-chlorophenyl)-2-hydroxyethyl)-1,2,4-oxadiazol-5-yl)methyl)pyrazin-2(1H)-one] yielded an IC50 (Table 4) of under 0.3 µM.
In the case of Cc1cc(CC#N)cn(Cc2nc(CCc3ccc(Cl)cc3)no2)c1=O [Compound 19, 2-(1-((3-(4-chlorophenethyl)-1,2,4-oxadiazol-5-yl)methyl)-5-methyl-6-oxo-1,6-dihydropyridin-3-yl)acetonitrile], the IC50 (Table 4) is reported as under 1 µM.
Cc1cc(CO)cn(Cc2nc(CCc3ccc(Cl)cc3)no2)c1=O [Compound 16, 1-((3-(4-chlorophenethyl)-1,2,4-oxadiazol-5-yl)methyl)-5-(hydroxymethyl)-3-methylpyridin-2(1H)-one] gave an IC50 (Table 4) of under 3 µM.
Work on CNC(=O)c1cc(C)c(=O)n(Cc2nc(CCc3ccc(Cl)cc3)no2)c1 [Compound 9, 1-((3-(4-chlorophenethyl)-1,2,4-oxadiazol-5-yl)methyl)-N,5-dimethyl-6-oxo-1,6-dihydropyridine-3-carboxamide] yielded an IC50 (Table 4) of under 1 µM.
In the case of Cc1ncc(C)n(Cc2nc(C[C@H](O)c3ccc(Cl)cc3)no2)c1=O [Compound 31, (S)-1-((3-(2-(4-chlorophenyl)-2-hydroxyethyl)-1,2,4-oxadiazol-5-yl)methyl)-3,6-dimethylpyrazin-2(1H)-one], the IC50 (Table 4) is reported as under 1 µM.
Cc1c(Br)ccn(Cc2nc(CCc3ccc(Cl)cc3)no2)c1=O [Compound 12, 4-bromo-1-((3-(4-chlorophenethyl)-1,2,4-oxadiazol-5-yl)methyl)-3-methylpyridin-2(1H)-one] was tested, and the IC50 (Table 4) was under 3 µM.
O=c1c(C(F)(F)F)cccn1Cc1nc(CCc2ccc(Cl)cc2)no1 [Compound 7, 1-((3-(4-chlorophenethyl)-1,2,4-oxadiazol-5-yl)methyl)-3-(trifluoromethyl)pyridin-2(1H)-one] was tested, and the IC50 (Table 4) was under 10 µM.
Work on Cc1c(CO)ccn(Cc2nc(CCc3ccc(Cl)cc3)no2)c1=O [Compound 11, 1-((3-(4-chlorophenethyl)-1,2,4-oxadiazol-5-yl)methyl)-4-(hydroxymethyl)-3-methylpyridin-2(1H)-one] yielded an IC50 (Table 4) of under 3 µM.
Work on O=c1c(Cl)c(-c2cn[nH]c2)ccn1Cc1nc(C[C@H](O)c2ccc(Cl)cc2)no1 [Compound 74, (S)-3-chloro-1-((3-(2-(4-chlorophenyl)-2-hydroxyethyl)-1,2,4-oxadiazol-5-yl)methyl)-4-(1H-pyrazol-4-yl)pyridin-2(1H)-one] yielded an IC50 (Table 5) of under 1 µM.
For Nc1ncn(Cc2nc(C[C@H](O)c3ccc(Cl)cc3)no2)c(=O)c1Cl [Compound 72, (S)-6-amino-5-chloro-3-((3-(2-(4-chlorophenyl)-2-hydroxyethyl)-1,2,4-oxadiazol-5-yl)methyl)pyrimidin-4(3H)-one], the IC50 (Table 5) was under 0.3 µM.
In the case of Cc1ccc(Cl)c(=O)n1Cc1nc(C[C@H](O)c2ccc(Cl)cc2)no1 [Compound 34, (S)-3-chloro-1-((3-(2-(4-chlorophenyl)-2-hydroxyethyl)-1,2,4-oxadiazol-5-yl)methyl)-6-methylpyridin-2(1H)-one], the IC50 (Table 4) is reported as under 1 µM.
